Assay results taken from US5344843A, “Cat-1 inhibitors, pharmaceutical compositions and methods of use” (Hoffman-La Roche Inc., priority 1992, dated 1994).
Counter-ions that a name gives are not always drawn.

Experiments:
[1] = target: T1, CAT-1 (carnitine acyltransferase 1) (Rattus norvegicus, UniProt Q63704); assay: Secondary Screen--Inhibition of CAT-1 in intact cardiac myocytes (hypoxia-induced increase in long-chain acylcarnitines); format: cell-based; design: inhibition: dose or concentration left out as unconfirmed; settings: isolated rat cardiac myocytes; for IC50: 50% inhibition of hypoxia-induced increase in long-chain acylcarnitines
T1 construct: This preparation is used as the isolated mitochondrial preparation; from tissue; host or cells: rat heart (atria removed), isolated mitochondria
T1 sequence (Q63704 1-772): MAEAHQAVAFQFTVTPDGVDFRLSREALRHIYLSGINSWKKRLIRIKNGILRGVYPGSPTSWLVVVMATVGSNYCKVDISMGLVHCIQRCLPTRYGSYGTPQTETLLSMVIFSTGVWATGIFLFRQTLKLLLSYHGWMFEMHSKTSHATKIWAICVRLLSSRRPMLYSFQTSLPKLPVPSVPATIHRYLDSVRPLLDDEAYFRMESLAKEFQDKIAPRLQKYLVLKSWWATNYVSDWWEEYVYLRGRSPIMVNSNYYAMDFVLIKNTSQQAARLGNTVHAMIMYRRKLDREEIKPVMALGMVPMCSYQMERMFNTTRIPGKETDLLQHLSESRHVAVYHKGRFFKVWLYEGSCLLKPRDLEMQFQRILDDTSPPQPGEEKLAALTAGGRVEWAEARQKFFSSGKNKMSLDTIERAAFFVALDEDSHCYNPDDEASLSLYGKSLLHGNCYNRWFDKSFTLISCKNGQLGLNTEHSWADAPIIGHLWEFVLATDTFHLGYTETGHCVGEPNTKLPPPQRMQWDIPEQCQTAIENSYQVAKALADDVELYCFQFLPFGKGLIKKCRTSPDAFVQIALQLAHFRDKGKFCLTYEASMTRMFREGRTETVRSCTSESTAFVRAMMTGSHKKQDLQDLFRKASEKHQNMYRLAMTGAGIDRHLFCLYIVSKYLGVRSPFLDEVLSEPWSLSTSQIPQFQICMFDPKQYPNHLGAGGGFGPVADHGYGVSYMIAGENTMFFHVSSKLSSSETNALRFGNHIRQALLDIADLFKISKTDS
Protocol: Secondary Screen--Inhibition of CAT-1 in intact Cardiac Myocytes
(a) Preparation of Isolated Rat Cardiac Myocytes
Four hearts are excised from anesthetized rats and perfused retrogradly via the Langendorf technique. Each heart receives 100 mL of Krebs (NaCl, 118.4 mM; KCL, 4.6 mM; NaH2 PO4, 1.0 mM; NaHCO3, 20 mM; MgSO4, 2 mM; CaCl2, 50 μM; glucose, 11.0 mM), 100 mL of Ca++ free Krebs and finally 100 mL of 0.5% collagenase (Boehringer Mannhelm, type 1) in Hepes (NaCl, 115 mM; KCl, 5 mM; sucrose, 35 mM; glucose, 10 mM; Hepes, 10 mM; taurine, 4 mM; MgSO4, 2 mM; CaCl2, 50 μM). After these perfusions, the hearts are chopped into pieces, approx. 0.5 cm×0.5 cm and placed in four 125 mL plastic bottles along with 25 mL of collagenase/Hepes situated in a water bath maintained at 35° C. The pieces of cardiac tissue in each bottle are agitated by using a Harvard respirator connected to four glass syringes, which sucks the tissue up and down each tube during each respiratory cycle. After fifteen minutes, the collagenase/Hepes is removed and replaced with fresh collegenase/Hepes and the process repeated. The collegenase/Hepes from the subsequent fifteen minute harvests are centrifuged at 500 g to pellet the cells which are then resuspended in Hepes buffer. After six harvests, all cells are pelleted, resuspended in 2×26.5 mL of Hepes plus BSA (350 mg) and layered on top of 2×percoll gradients (21.15 mL percoll, 2.35 mL NaCl, 6 drops acetic acid). This is centfifuged at 3000 g for eight minutes forming a percoll gradient which results in viable cells being separated from damaged cells. The viable cells are removed, washed with Hepes and finally resuspended in 25 mL of Hepes.
The isolated cardiac myocytes (2 mL; approximately 1×10^6 cells) are separated into six glass pods. Into four of these are placed selected concentrations of the compound to be tested, and the cells are incubated for twenty minutes, after which the pods are centrifuged at 300 g for three minutes. 300 μL of normoxic Hepes is placed in one of the pods not containing compound and then all pods are placed in a hypoxic chamber (N2 atmosphere). Oxygen is fed via small bore steel tubes to the pod containing the normoxic buffer, while the other five pods receive pre-purified argon (99.998% pure). After two minutes, Hepes (pre-gassed with argon for at least twelve hours) is fed into the five hypoxic pods. This hypoxic environment (pO2 <10 mm Hg) is maintained for twenty minutes, after which the cells and pods are frozen by contact with a metal block precooled in liquid N2. The pods are then removed from the chamber and stored at -70° C. The carnitine assay is performed, as described below in (c), to determine the amount of long-chain acylcarnitine in the cells from the normoxic, hypoxic and hypoxic plus compound samples. […] Thus the IC50 in this screen is the concentration of test compound which produces a 50% inhibition of the hypoxia-induced increase in long-chain acylcarnitines.
(c) Long-chain Acylcarnitine Assay.
The frozen cell samples are thawed, mixed and homogenized with 40 μL of 70% PCA. The homogenate is transferred to eppendorf tubes while the homogenization tube and the glass pod is rinsed with 500 μL of 7% PCA, with the rinse being added to the eppendorf tube. This is then centrifuged at 1000 g for two minutes to pellet the precipitate (containing the long-chain acylcarnitine) and the supernatant is discarded. The pellet is washed twice with 500 μL of 7% PCA, the supernatants being discarded. The pellet is then hydrolyzed (to separate the acyl unit from carnitine to yield free carnitine) by the addition of 200 μL of aleionized H2 O and 50 μL of 5N KOH and incubated at 70° C. for ninety minutes.

[2] = target: T1, CAT-1 (carnitine acyltransferase 1); assay: Primary Screen--Inhibition of CAT-1 in isolated mitochondria; format: biochemical
Protocol: Primary Screen--Inhibitors of CAT-1 in 1Mitochondria
(a). Preparation of Mitochondria
The heart is rapidly removed from an anesthetized rat (sodium pentabarbitol) and placed in ice-cold homogenization buffer (sucrose, 250 mM; Tris, 10 mM; EDTA, 1 mM; BSA, 0.01%; pH=7.4). The atria and extraneous tissue are removed and the remainder is chopped with scissors. The pieces are rinsed in homogenization buffer before being homogenized in 10 mL of the same buffer for 5-7 seconds. The homogenate is then diluted with homogenization buffer (40 total volume) and centrifuged at 200 g for 20 minutes. The supernatant is withdrawn and centrifuged at 7000 g for 20 minutes and the resulting pellet is isolated, resuspended in 40 mL of homogenization buffer and centrifuged once more at 7000 g for 20 minutes. The isolated pellet is resuspended in 10 mL of homogenization buffer and stored at 4° C. until use. This preparation is used as the isolated mitochondrial preparation.
(b). Inhibition of CAT-1 assay
Isolated mitochondria (20 μL) are incubated with 60 μL of Tris/sucrose buffer (sucrose, 500 mM; Tris, 20 mM; KCl, 100 mM; EDTA, 2 mM; pH=7.0 plus 83 μM palmitoyl CoA, and BSA, 0.8 mg/mL and 10^-4 to 10^-10 M of the drug to be tested. After 10 minutes at 30° C., the reaction is started by addition of 10 μL of ^3 H-carnitine (final concentration=250 μM). After 5 minutes, the reaction is terminated by the addition of ice cold 70% perchloric acid (PCA). The precipitated solids so formed, containing the insoluble product of the enzyme palmitoyl carnitine, are captured on filter paper. The filter paper is washed with 7% PCA, then dried and placed in scintillation vials with 10 mL of scintillant (Aquasol, New England Nuclear) and counted for radioactivity. The rate of the reaction is assessed by the difference in radioactivity between zero time and five minutes in the absence of test compound. The ability of test compounds at selected concentrations to inhibit CAT-1 is determined by their ability to reduce the formation of the radioactive product. The IC50 of the test compound is the concentration of test compound that reduces the formation of radioactive product by 50%.

[3] = rat heart mitochondria, reduction of palmitoyl carnitine formation by 50%, read-out: Primary Screen IC50

Row | IC50 [1] [µM] | IC50 [2, 3] [µM] | inhibition ([1]; hypoxia) [%] | SMILES | IC50 [2] [µM]
1 | 0.25 | 0.04 | – | O=C(OCC(O)CO)C(=O)c1ccc(OCCOc2ccc3ccccc3c2)s1 (racemic) [Example 5, rac.-5-[[2-(2-naphthalenyloxy)ethyl]oxy]-alpha-oxo-2-thiopheneacetic acid 2,3-dihydroxypropyl ester] | –
2 | 1.2 | 0.04 | – | O=C(OCC(O)CO)C(=O)c1ccc(OCCOc2ccc3ccccc3c2)cc1 (racemic) [Example 104, rac.-4-[[2-(2-naphthalenyloxy)ethyl]oxy]-alpha-oxobenzeneacetic acid 2,3-dihydroxypropyl ester] | –
3 | 1 | 0.05 | – | O=C(O)C(=O)c1ccc(OCCOc2ccc3ccccc3c2)s1 [Example 4, 5-[[2-(2-naphthalenyloxy)ethyl]oxy]-alpha-oxo-2-thiopheneacetic acid] | –
4 | 0.3 | 0.04 | – | CN(C)CCOC(=O)C(=O)c1ccc(OCCOc2ccc3ccccc3c2)s1 [Example 6, 5-[[2-(2-naphthalenyloxy)ethyl]oxy]-alpha-oxo-2-thiopheneacetic acid 2-(dimethylamino)ethyl ester] | –
5 | 0.1 | 0.03 | – | C[N+](C)(C)CCOC(=O)C(=O)c1ccc(OCCOc2ccc3ccccc3c2)s1 [Example 7, 2-[[5-[[2-(2-naphthalenyloxy)ethyl]oxy]-alpha-oxo-2-thiopheneacetyl]oxy]-N,N,N-trimethylethanaminium iodide] | –
6 | 8 | 1.8 | – | O=C(O)C(=O)c1ccc(OCCOC2CCCCCCC2)s1 [Example 9, 5-[[2-(cyclooctyloxy)ethyl]oxy]-alpha-oxo-2-thiopheneacetic acid] | –
7 | 3.8 | 1.75 | – | O=C(O)C(F)(F)c1ccc(OCCOc2ccc3ccccc3c2)cc1 [Example 13, alpha, alpha-difluoro-4-[[2-(2-naphthalenyloxy)ethyl]oxy]benzeneacetic acid] | –
8 | 5 | 37.4 | – | N[C@H](C(=O)O)c1ccc(OCCOC2CCCCCCC2)cc1 [Example 18, (S)-alpha-amino-4-[[2-(cyclooctyloxy)ethyl]oxy]benzeneaceticacid hydrochloride] | –
9 | 37 | 0.5 | – | O=C(O)C(=O)c1ccc(OCCCc2ccccc2)cc1 [Example 23, 4-[(3-phenylpropyl)oxy]-alpha-oxobenzeneacetic acid] | –
10 | 12 | 2 | – | O=C(O)C(=O)c1ccc(OCCCCc2ccccc2)cc1 [Example 25, 4-[(4-phenybutyl)oxy]-alpha-oxobenzeneacetic acid] | –
11 | 37 | 2 | – | O=C(O)C(=O)c1ccc(OCCOc2ccccc2)cc1 [Example 37, alpha-oxo-4-[[2-(phenoxy)ethyl]oxy]benzeneacetic acid] | –
12 | 20 | 0.4 | – | O=C(O)C(=O)c1ccc(OCCCCOc2ccccc2)cc1 [Example 71, alpha-oxo-4-[[(4-phenoxy)butyl]oxy]benzeneacetic acid] | –
13 | 17.5 | 0.3 | – | O=C(O)C(=O)c1ccc(OCCSc2ccccc2)cc1 [Example 82, alpha-oxo-4-[[2-(phenylthio)ethyl]oxy]benzeneacetic acid] | –
14 | 4 | 0.08 | – | O=C(O)C(=O)c1ccc(OCCOc2cccc3ccccc23)cc1 [Example 84, 4-[[2-(1-naphthalenyloxy)ethyl]oxy]-alpha-oxobenzeneacetic acid] | –
15 | 3 | 0.08 | – | O=C(O)C(=O)c1ccc(OCCOc2ccc3ccccc3c2)cc1 [Example 86, 4-[[2-(2-naphthalenyloxy)ethyl]oxy]-alpha-oxobenzeneacetic acid] | –
16 | 3.5 | 0.17 | – | O=C(O)C(=O)c1ccc(OCCCCOc2ccc3ccccc3c2)cc1 [Example 88, 4-[[4-(2-naphthalenyloxy)butyl]oxy]-alpha-oxobenzeneacetic acid] | –
17 | 28 | 0.27 | – | O=C(O)C(=O)c1ccc(OCCSc2ccc3ccccc3c2)cc1 [Example 90, 4-[[2-(2-naphthalenylthio)ethyl]oxy]-alpha-oxobenzeneacetic acid] | –
18 | 12 | 0.08 | – | O=C(O)C(=O)c1ccc(OCCCc2ccc3ccccc3c2)cc1 [Example 94, 4-[[3-(2-naphthalenyl)propyl]oxy]-alpha-oxobenzeneacetic acid] | –

Row | IC50 [1] [µM] | IC50 [2, 3] [µM] | inhibition ([1]; hypoxia) [%] | SMILES | IC50 [2] [µM]
19 | 7 | 0.065 | – | O=C(O)C(=O)c1ccc(OC/C=C/c2ccc3ccccc3c2)cc1 [Example 96, (E)-4-[[3-(2-naphthalenyl)-2-propenyl]oxy]-alpha-oxobenzeneacetic acid] | –
20 | 20 | 0.9 | – | O=C(O)C(=O)c1ccc(OCCOC2CCCCC2)cc1 [Example 99, 4-[[2-(cyclohexyloxy)ethyl]oxy]-alpha-oxobenzeneacetic acid] | –
21 | 50 | 0.9 | – | O=C(O)C(=O)c1ccc(OCCOC2CCCCCCC2)cc1 [Example 101, 4-[[2-(cyclooctyloxy)ethyl]oxy]-alpha-oxobenzeneacetic acid] | –
22 | – | – | 90 | CC(C)c1cccc(-c2ccc(F)cc2)c1OCCOc1ccc(C(=O)C(=O)O)cc1 [Example 234, 4-[2-[4'-fluoro-3-(1-methylethyl)[1,1'-biphenyl]-2-yloxy]ethoxy]-alpha-oxobenzeneacetic acid] | –
23 | 12 | – | – | CC(C)n1c(/C=C/COc2ccc(C(=O)C(=O)O)cc2)c(-c2ccc(F)cc2)c2ccccc21 [Example 241, (E)-4-[3-[3-(4-fluorophenyl)-1-(1-methylethyl)-1H-indole-2-yl]-2-propenyloxy]-alpha-oxobenzeneacetic acid (1:1) morpholine salt] | –
24 | 7 | – | – | CC(C)c1nc(-c2ccccc2)n(-c2ccc(F)cc2)c1/C=C/COc1ccc(C(=O)C(=O)O)cc1 [Example 243, (E)-4-[3-[1-(4-fluorophenyl)-4-(1-methylethyl)-2-phenyl-1H-imidazol-5-yl]-2-propenyloxy]-alpha-oxobenzeneacetic acid] | –
25 | – | 1 | – | O=C(O)C(=O)c1ccc(OCC(=O)C2CCCCCCC2)cc1 [Example 290, 4-[2-(cyclooctyl)-2-oxoethoxy]-alpha-oxobenzeneacetic acid] | –
26 | – | 4.5 | – | Cc1cc(C)c(C(=O)COc2ccc(C(=O)C(=O)O)cc2)c(C)c1 [Example 292, 4-[2-oxo-2-(2,4,6-trimethylphenyl]ethoxy]-alpha-oxobenzeneacetic acid] | –
27 | – | – | – | Cc1nnc2n1-c1sc(C#CCOc3ccc(C(=O)C(=O)O)cc3)cc1C(c1ccccc1Cl)=NC2 [Example 294, 4-[3-[4-(2-chlorophenyl)-9-methyl-6H-thieno[3,2-f][1,2,4]triazolo[4,3-a][1,4]diazepin-2-yl]-2-propynyloxy]-alpha-oxobenzeneacetic acid] | 0.3
28 | – | – | – | Cc1nnc2n1-c1sc(CCCOc3ccc(C(=O)C(=O)O)cc3)cc1C(c1ccccc1Cl)=NC2 [Example 296] | 10
29 | – | 0.02 | – | CCO/N=C(/C(=O)O)c1ccc(OCCOc2ccc3ccccc3c2)s1 [Example 309, (Z)-alpha-(ethoxyimino)-5-[2-(2-naphthalenyloxy)ethoxy]-2-thiopheneacetic acid] | –
30 | – | 0.24 | – | CCO/N=C(\C(=O)O)c1ccc(OCCOc2ccc3ccccc3c2)s1 [Example 310, (E)-alpha-(ethoxyimino)-5-[2-(2-naphthalenyloxy)ethoxy]-2-thiopheneacetic acid] | –
31 | – | 0.1 | – | C=CCO/N=C(/C(=O)O)c1ccc(OCCOc2ccc3ccccc3c2)s1 [Example 312, (Z)-5-[2-(2-naphthalenyloxy)ethoxy]-alpha-[(2-propenyloxy)imino]-2-thiopheneacetic acid] | –
32 | – | 0.27 | – | C=CCO/N=C(\C(=O)O)c1ccc(OCCOc2ccc3ccccc3c2)s1 [Example 313, (E)-5-[2-(2-naphthalenyloxy)ethoxy]-alpha-[(2-propenyloxy)imino]-2-thiopheneacetic acid] | –
33 | – | 0.14 | – | O=C(O)/C(=N/OCc1ccccc1)c1ccc(OCCOc2ccc3ccccc3c2)s1 [Example 315, (Z)-5-[2-(2-naphthalenyloxy)ethoxy]-alpha-[(phenylmethoxy)imino]-2-thiopheneacetic acid] | –
34 | – | 0.5 | – | O=C(O)/C(=N\OCc1ccccc1)c1ccc(OCCOc2ccc3ccccc3c2)s1 [Example 316, (E)-5-[2-(2-naphthalenyloxy)ethoxy]-alpha-[(phenylmethoxy)imino]-2-thiopheneacetic acid] | –
35 | – | 1.8 | – | CN(C)/N=C(/C(=O)O)c1ccc(OCCOc2ccc3ccccc3c2)cc1 [Example 320, (E)-alpha-(dimethylhydrazono)-4-[2-(2-naphthalenyloxy)ethoxy]benzeneaceticacid] | –
36 | – | 6.5 | – | CN(C)/N=C(\C(=O)O)c1ccc(OCCOc2ccc3ccccc3c2)cc1 [Example 321, (Z)-alpha-(dimethylhydrazono)-4-[2-(2-naphthalenyloxy)ethoxy]benzeneaceticacid] | –
